Source: the NIST ThermoML archive (doi:10.1021/je700321s)

Assay: xn = mol fraction of the nth substance listed
Details: Liquid, Vibrating tube method

CC(C)O [propan-2-ol] + O=C=O
Details | mass density [kg/m3]
313.1 K, 9024 kPa, x2 = 0.4248 | 808.1
313.1 K, 9602 kPa, x2 = 0.4248 | 809.3
313.1 K, 9636 kPa, x2 = 0.2003 | 794.6
313.1 K, 10055 kPa, x2 = 0.4248 | 810.1
313.12 K, 6801 kPa, x2 = 0.6086 | 802.8
313.12 K, 7000 kPa, x2 = 0.6086 | 803.5
313.12 K, 7203 kPa, x2 = 0.6086 | 804.4
313.12 K, 7402 kPa, x2 = 0.6086 | 805.2
313.12 K, 7602 kPa, x2 = 0.6086 | 806
313.12 K, 7804 kPa, x2 = 0.6086 | 806.8
313.12 K, 8010 kPa, x2 = 0.6086 | 807.7
313.12 K, 8124 kPa, x2 = 0.9715 | 526.2
313.12 K, 8197 kPa, x2 = 0.6086 | 808.3
313.12 K, 8400 kPa, x2 = 0.6086 | 809.1
313.12 K, 8526 kPa, x2 = 0.9715 | 627.3
313.12 K, 8602 kPa, x2 = 0.6086 | 809.8
313.12 K, 8812 kPa, x2 = 0.6086 | 810.5
313.12 K, 9000 kPa, x2 = 0.6086 | 811.3
313.12 K, 9002 kPa, x2 = 0.9715 | 662.5
313.12 K, 9213 kPa, x2 = 0.6086 | 812
313.12 K, 9392 kPa, x2 = 0.6086 | 812.6
313.12 K, 9522 kPa, x2 = 0.9715 | 689
313.12 K, 9600 kPa, x2 = 0.6086 | 813.3
313.12 K, 9802 kPa, x2 = 0.6086 | 814
313.12 K, 10001 kPa, x2 = 0.6086 | 814.6
313.12 K, 10021 kPa, x2 = 0.9715 | 708.1
313.12 K, 10520 kPa, x2 = 0.9715 | 722.7
313.12 K, 10993 kPa, x2 = 0.9715 | 734.9
313.12 K, 11514 kPa, x2 = 0.9715 | 746.8
313.12 K, 12038 kPa, x2 = 0.9715 | 757.3
313.12 K, 12512 kPa, x2 = 0.9715 | 765.8
313.12 K, 13003 kPa, x2 = 0.9715 | 773.6
313.12 K, 13500 kPa, x2 = 0.9715 | 781.1
313.12 K, 13998 kPa, x2 = 0.9715 | 788.2
313.12 K, 14495 kPa, x2 = 0.9715 | 794.8
313.12 K, 15008 kPa, x2 = 0.9715 | 801.1
323.03 K, 6842 kPa, x2 = 0.4248 | 786.9
323.03 K, 7010 kPa, x2 = 0.4248 | 787.3
323.03 K, 7302 kPa, x2 = 0.4248 | 788.1
323.03 K, 7530 kPa, x2 = 0.4248 | 788.6
323.03 K, 8004 kPa, x2 = 0.4248 | 789.7
323.03 K, 8302 kPa, x2 = 0.4248 | 790.4
323.03 K, 8401 kPa, x2 = 0.4248 | 790.6
323.03 K, 8500 kPa, x2 = 0.4248 | 790.8
323.03 K, 8603 kPa, x2 = 0.4248 | 791.2
323.03 K, 8710 kPa, x2 = 0.4248 | 791.4
323.03 K, 8821 kPa, x2 = 0.4248 | 791.7
323.03 K, 9000 kPa, x2 = 0.4248 | 792.1
323.03 K, 9209 kPa, x2 = 0.4248 | 792.5
323.03 K, 9309 kPa, x2 = 0.4248 | 792.8
323.03 K, 9401 kPa, x2 = 0.4248 | 793.1
323.03 K, 9502 kPa, x2 = 0.4248 | 793.3
323.03 K, 9601 kPa, x2 = 0.4248 | 793.4
323.03 K, 9728 kPa, x2 = 0.4248 | 793.7
323.05 K, 2995 kPa, x2 = 0.139 | 771.3
323.05 K, 3503 kPa, x2 = 0.139 | 771.9
323.05 K, 4003 kPa, x2 = 0.139 | 772.6
323.05 K, 4494 kPa, x2 = 0.139 | 773.2
323.05 K, 5074 kPa, x2 = 0.139 | 773.9
323.05 K, 5511 kPa, x2 = 0.139 | 774.5
323.05 K, 6033 kPa, x2 = 0.139 | 775.2
323.05 K, 7021 kPa, x2 = 0.139 | 776.4
323.05 K, 7506 kPa, x2 = 0.6086 | 779.7
323.05 K, 7514 kPa, x2 = 0.139 | 777.1
323.05 K, 7703 kPa, x2 = 0.6086 | 780.7
323.05 K, 7803 kPa, x2 = 0.6086 | 781.1
